{
  "source": "paper PMC6478719",
  "about": "(Communications Biology, 2019)",
  "target": "T1, Olfr73 (Mus musculus, UniProt Q920P2)",
  "T1 construct": "expressed in transfected cells; host or cells: Hana3A cells (HEK293T-derived), co-transfected with pRTP1S and pCRE-SEAP",
  "T1 sequence (Q920P2 1-313)": "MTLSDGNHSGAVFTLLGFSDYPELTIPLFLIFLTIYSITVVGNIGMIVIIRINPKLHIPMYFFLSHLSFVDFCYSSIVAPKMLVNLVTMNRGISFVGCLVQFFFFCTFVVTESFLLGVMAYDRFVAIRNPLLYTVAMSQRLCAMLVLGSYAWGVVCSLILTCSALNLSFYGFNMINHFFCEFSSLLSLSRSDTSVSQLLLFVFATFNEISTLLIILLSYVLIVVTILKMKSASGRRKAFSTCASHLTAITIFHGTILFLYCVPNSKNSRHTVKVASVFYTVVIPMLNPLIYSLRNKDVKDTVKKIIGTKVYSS",
  "assay": "SEAP reporter assay (cAMP signalling) of Olfr73 activation in Hana3A cells",
  "format": "cell-based",
  "protocol": "As described in detail elsewhere[16],[45],[47] HEK293T-derived Hana3A cells (provided by Prof. Matsunami, Duke University, USA) were grown in DMEM/F12 medium (Invitrogen, Netherlands) supplemented with 10% fetal calf serum (FCS) (Invitrogen, Netherlands), maintained under selective conditions with 1 μg/ml of puromycin (Sigma, Switzerland) and kept in the incubator at 37 °C and 5% CO2. Cells were transfected with plasmid DNA using Lipofectamine 2000 (Invitrogen, Netherlands).\nThe assays were performed as described in detail elsewhere[16],[45],[47] twenty hours before transfection Hana3A cells were seeded into 96 wells (Greiner, Germany) at a concentration of 3.5 × 10^6 cells per ml of medium. 75 ng of pRTP1S, 150 ng of the cAMP response element fused to the secreted alkaline phosphatase (pCRE-SEAP)[89] and either 75 ng of pOlfr73[47] or 75 ng of calf thymus DNA, used as a control, were co-transfected. Compounds to be tested (Sigma, Switzerland) were diluted in DMEM/F12 without FCS and added to the cells 7 h after transfection. Cells were incubated for 16 h at 37 °C in the incubator. For the SEAP reporter assay, the culture medium was mixed with an equal volume of 1 M diethanolamine-bicarbonate, pH 9.8, containing 20 mM para-nitrophenyl-phosphate (pNPP) (Sigma, Switzerland) and 1 mM MgCl2 (Sigma, Switzerland). Absorbance was measured at 410 nm using a multiwell absorbance plate reader (Molecular Devices, USA) at 1- to 4-min intervals for a period of 5 min to determine SEAP expression dependent pNPP hydrolysis rates (A410 /min). EC50 values were determined from dose-response curves fitting experimental data with the Hill equation using IGOR Pro software (WaveMetrics):\nfx=f(max)/1+EC50/x^n f(x) is the background-corrected response signal at concentration x of the investigated ligand, f(max) the maximal, background-corrected amplitude of the response signal, EC50 the half maximal effective ligand concentration, and n the Hill coefficient. Experiments were performed in triplicate.",
  "key": {"[1]": {"conditions": "EC50 (μM), Supplementary Table 2, cellular assays, triplicate, n.a. = no active response"}, "[2]": {"conditions": "Supplementary Table 2, cellular assays, triplicate, n.a. = no active response, read-out: EC50"}, "[3]": {"conditions": "Fig. 4, newly found agonists A1-A17, read-out: EC50 (in brackets, Fig. 4)"}, "[4]": {"conditions": "EC50 (in brackets, Fig. 4), Fig. 4, newly found agonists A1-A17"}},
  "note": "Where two headings read alike, the source gives them in different places.",
  "data": [
    {"smiles": "CCOC(=O)c1ccc(O)c(OC)c1", "note": "[A16, ethylvanillate]", "values": [
      {"measurement": "EC50", "setting": "[1]", "result": "505 ± 109", "unit": "µM"}
    ]},
    {"smiles": "CC(=O)c1cc(C)c(O)c(C)c1", "note": "[A13, 4-hydroxy-3,5-dimethylacetophenone]", "values": [
      {"measurement": "EC50", "setting": "[2]", "result": "250 ± 3", "unit": "µM"}
    ]},
    {"smiles": "C/C=C/c1ccc(OCC)c(OC)c1", "note": "[A11, isoeugenylethylether]", "values": [
      {"measurement": "EC50", "setting": "[2]", "result": "193 ± 3", "unit": "µM"}
    ]},
    {"smiles": "COc1cc(C(C)(C)C)ccc1O", "note": "[A4, 4-tert-butyl-2-methoxyphenol]", "values": [
      {"measurement": "EC50", "setting": "[3]", "result": 56, "unit": "µM"},
      {"measurement": "EC50", "setting": "[2]", "result": "55.6 ± 0.7", "unit": "µM"}
    ]},
    {"smiles": "COc1cc2ccccc2cc1OC", "note": "[A10, 2,3-dimethoxynaphthalene]", "values": [
      {"measurement": "EC50", "setting": "[2]", "result": "120 ± 1", "unit": "µM"}
    ]},
    {"smiles": "CC/C=C/c1ccc(OC)c(OC)c1", "note": "[A8, (E)-4-(but-1-en-1-yl)-1,2-dimethoxybenzene]", "values": [
      {"measurement": "EC50", "setting": "[4]", "result": 93, "unit": "µM"},
      {"measurement": "EC50", "setting": "[1]", "result": "92.5 ± 0.9", "unit": "µM"}
    ]},
    {"smiles": "CCCc1ccc(O)c(OC)c1", "note": "[A5, dihydroeugenol]", "values": [
      {"measurement": "EC50", "setting": "[1]", "result": "61 ± 6.9", "unit": "µM"}
    ]},
    {"smiles": "COc1cc2c(cc1OC)CCCC2", "note": "[A7, 6,7-dimethoxy-1,2,3,4-tetrahydronaphthalene]", "values": [
      {"measurement": "EC50", "setting": "[3]", "result": 88, "unit": "µM"},
      {"measurement": "EC50", "setting": "[2]", "result": "88.4 ± 1.3", "unit": "µM"}
    ]},
    {"smiles": "CC(C)Cc1ccc(O)cc1", "note": "[A1, p-isobutylphenol]", "values": [
      {"measurement": "EC50", "setting": "[3]", "result": 13, "unit": "µM"},
      {"measurement": "agonist activity at Olfr73 (SEAP signal)", "setting": "Hana3A cells, compounds predicted from virtual screening", "result": "most potent ligand"},
      {"measurement": "EC50", "setting": "[2]", "result": "12.9 ± 0.9", "unit": "µM"}
    ]},
    {"smiles": "C=CCc1cc(C(C)=O)ccc1O", "note": "[A9, 1-(3-allyl-4-hydroxyphenyl)-ethanone]", "values": [
      {"measurement": "EC50", "setting": "[4]", "result": 97, "unit": "µM"},
      {"measurement": "EC50", "setting": "[1]", "result": "96.9 ± 1.7", "unit": "µM"}
    ]},
    {"smiles": "CC(C)=C[C@H]1C[C@H](C)CCO1", "note": "[A17, (2R,4R)-4-methyl-2-(2-methylprop-1-en-1-yl)-tetrahydro-2H-pyran]", "values": [
      {"measurement": "EC50", "setting": "[2]", "result": "627 ± 62", "unit": "µM"}
    ]},
    {"smiles": "CCC(=O)c1ccc(O)cc1", "note": "[A15, 4-hydroxypropiophenone]", "values": [
      {"measurement": "EC50", "setting": "[2]", "result": "502 ± 315", "unit": "µM"}
    ]},
    {"smiles": "CC(=O)c1cc(C)c(O)cc1C", "note": "[A2, 2’,5’-dimethyl -4’hydroxyacetophenone]", "values": [
      {"measurement": "EC50", "setting": "[2]", "result": "16 ± 1.5", "unit": "µM"}
    ]},
    {"smiles": "Oc1ccc(C2CCCCC2)cc1", "note": "[A3, 4-cydohexyl-phenol]", "values": [
      {"measurement": "EC50", "setting": "[4]", "result": 51, "unit": "µM"},
      {"measurement": "EC50", "setting": "[1]", "result": "50.8 ± 0.5", "unit": "µM"}
    ]},
    {"smiles": "CCCCCC1CCC(=O)CC1", "note": "[A6, 4-pentylcyclohexanone]", "values": [
      {"measurement": "EC50", "setting": "[3]", "result": 63, "unit": "µM"},
      {"measurement": "EC50", "setting": "[2]", "result": "63.1 ± 1.5", "unit": "µM"}
    ]}
  ]
}
